Source: ChEMBL document CHEMBL3217671, “l-Penicillamine is a mechanism-based inhibitor of serine palmitoyltransferase by forming a pyridoxal-5-phosphate-thiazolidine adduct” (Medchemcomm, 2012)
Activity calls are given as the source filed them. The rule behind the calls is not given here.

What was measured:
[1] = target: T1, Serine palmitoyltransferase (Sphingomonas paucimobilis) (UniProt Q93UV0); test: Inhibition of Sphingomonas paucimobilis recombinant SPT expressed in Escherichia coli BL21(DE3) by membrane filtration assay
T1 sequence (whole entry): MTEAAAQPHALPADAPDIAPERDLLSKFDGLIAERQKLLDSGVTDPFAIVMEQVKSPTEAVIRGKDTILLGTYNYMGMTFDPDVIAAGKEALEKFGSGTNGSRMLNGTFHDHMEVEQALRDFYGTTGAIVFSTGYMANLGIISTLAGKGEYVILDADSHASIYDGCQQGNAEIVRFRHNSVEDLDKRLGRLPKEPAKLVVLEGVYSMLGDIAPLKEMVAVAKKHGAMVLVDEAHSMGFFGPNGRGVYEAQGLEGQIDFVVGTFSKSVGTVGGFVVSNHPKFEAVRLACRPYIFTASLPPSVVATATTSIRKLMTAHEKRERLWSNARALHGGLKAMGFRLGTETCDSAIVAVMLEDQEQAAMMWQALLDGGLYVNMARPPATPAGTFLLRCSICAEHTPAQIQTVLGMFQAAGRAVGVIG

[2] = target: T1, Serine palmitoyltransferase (Sphingomonas paucimobilis); test: Binding affinity to Sphingomonas paucimobilis recombinant SPT expressed in Escherichia coli BL21(DE3) at 10 mM after 30 mins by UV-vis spectroscopic analysis
[3] = target: T1, Serine palmitoyltransferase (Sphingomonas paucimobilis); test: Inhibition of Sphingomonas paucimobilis recombinant SPT expressed in Escherichia coli BL21(DE3) assessed as remaining activity at 5 mM after 30 mins by dialysis technique relative to control
[4] = target: T1, Serine palmitoyltransferase (Sphingomonas paucimobilis); test: Binding affinity to Sphingomonas paucimobilis recombinant SPT expressed in Escherichia coli BL21(DE3) at 5 mM by ESI-FT-ICR mass spectrometric analysis
[5] = target: T1, Serine palmitoyltransferase (Sphingomonas paucimobilis); test: Reversible inhibition of Sphingomonas paucimobilis recombinant SPT expressed in Escherichia coli BL21(DE3) assessed as restoration of enzyme activity at 5 mM after 30 mins by dialysis technique in presence of PLP relative to control; set-up: scale not given: the % may be the effect or the level left
[6] = target: T1, Serine palmitoyltransferase (Sphingomonas paucimobilis); test: Inhibition of Sphingomonas paucimobilis recombinant SPT expressed in Escherichia coli BL21(DE3) by dialysis technique in presence of PLP and potassium phosphate buffer
[7] = target: T1, Serine palmitoyltransferase (Sphingomonas paucimobilis); test: Reversible inhibition of Sphingomonas paucimobilis recombinant SPT expressed in Escherichia coli BL21(DE3) at 1 mM after 1 to 60 mins by UV-vis spectroscopic analysis in presence of Tris-HCl buffer
[8] = target: T1, Serine palmitoyltransferase (Sphingomonas paucimobilis); test: Reversible inhibition of Sphingomonas paucimobilis recombinant SPT expressed in Escherichia coli BL21(DE3) at 1 mM after 1 to 60 mins by UV-vis spectroscopic analysis in presence of potassium phosphate buffer
[9] = target: T1, Serine palmitoyltransferase (Sphingomonas paucimobilis); test: Binding affinity to Sphingomonas paucimobilis recombinant SPT expressed in Escherichia coli BL21(DE3) at 10 mM by UV-vis spectroscopic analysis; conditions: TDE = time-dependent effect

Row | inhibition [1] | Activity [2] | Activity [3] | Activity [4] | Activity [5] | inhibition [6] | inhibition [7] | inhibition [8] | Activity [9] | Compound
1 | Active | Active | 3% | Active | 80% | Active | – | – | – | CC(C)(S)[C@H](N)C(=O)O
2 | – | – | 24% | – | 83% | – | Active | inactive | tde | N[C@@H](CS)C(=O)O
3 | – | – | 22% | – | 76% | – | – | – | – | N[C@H](CS)C(=O)O
4 | – | – | 34% | – | 57% | – | – | – | – | CC(C)(S)[C@@H](N)C(=O)O
